Earlier results as cited in patent US20050203014A1, “Composition and methods for modulating CNS activity” (Curis, Inc., priority 2003, published 2005).

How the values were obtained:
[1] = test system: knock-out mice lacking 5-HT1A receptors; settings: 5-HT1A receptor knock-out mice
[2] = test system: dentate gyrus of the rat hippocampus

In the case of `CNCCCN1c2ccccc2CCc2ccccc21` [desipramine], the response to antidepressant [1] is listed as “respond”.

In the case of `CNCCC(Oc1ccc(C(F)(F)F)cc1)c1ccccc1` (centres unmarked) [fluoxetine], the response to antidepressant [1] is listed as “non-responsive” and the “neurogenesis in the dentate gyrus” value [2] is listed as “increase neurogenesis”.

For `CN(C)CCCN1c2ccccc2CCc2ccccc21` [imipramine], the response to antidepressant [1] is listed as “respond” and the “neurogenesis in the dentate gyrus” value [2] is listed as “increase neurogenesis”.
